Assay results published in patent US5041567A, “Antibacterial monic acid derivatives” (Beecham Group plc, priority 1982, dated 1991).
Values after ≈ are worked out from the molar mass of the structure shown.

Tests used:
[1] = tested on: M. suipneumoniae ATCC 25095; assay: MIC against mycoplasma in vitro; format: cell-based; conditions: Mesomycoplasma hyopneumoniae, ATCC25095, 144 h
Strep. agalactiae SPA1 = assay: MIC against veterinary bacteria in vitro; conditions: Streptococcus agalactiae, SPA1, 18 h
Method: (§1) The activity of the compounds of the Examples against various veterinarily important bacteria, was assayed in vitro using two-fold serial dilutions in Diagnostic Sensitivity Test Agar inoculated with 10^4 organisms.

M. bovis NCTC 10131 = assay: microbe, parasite or virus in culture; format: cell-based; conditions: NCTC10131, 144 h
S. typhimurium S18 = assay: MIC against veterinary bacteria in vitro; conditions: Salmonella enterica, TYPHIMURIUM, 18 h
Method: as §1

Staph. aureus Oxford = assay: MIC against veterinary bacteria in vitro; conditions: Staphylococcus aureus, 18 h
Method: as §1

E. coli NCTC 10418 = assay: MIC against veterinary bacteria in vitro; conditions: Escherichia coli, NCTC10418, 18 h
Method: as §1

M. hyorhinis ATCC 25021 = assay: MIC against mycoplasma in vitro; format: cell-based; conditions: Mesomycoplasma hyorhinis, ATCC25021, 144 h; M. hyorhinis ATCC 25021; 6 days, 37° C.; read-out: MIC
Past. haemolytica PA5 = assay: MIC against veterinary bacteria in vitro; conditions: Mannheimia haemolytica, PA5, 18 h
Method: as §1

M. suipneumoniae JF 435 = assay: MIC against mycoplasma in vitro; format: cell-based; conditions: Mesomycoplasma hyopneumoniae, JF435, 144 h
M. hyorhinis ATCC 23234 = assay: MIC against mycoplasma in vitro; format: cell-based; conditions: Mesomycoplasma hyorhinis, ATCC23234, 144 h; M. hyorhinis ATCC 23234; 6 days, 37° C.; read-out: MIC
[2] = tested on: M. bovigenitalium ATCC 14173; assay: MIC against mycoplasma in vitro; format: cell-based; conditions: 144 h
Strep. dysgalactiae SPD1 = assay: MIC against veterinary bacteria in vitro; conditions: Streptococcus dysgalactiae, SPD1, 18 h
Method: as §1

S. dublin S7 = assay: MIC against veterinary bacteria in vitro; conditions: Salmonella enterica, S7, 18 h
Method: as §1

M. suipneumoniae UCD 1 = assay: MIC against mycoplasma in vitro; format: cell-based; conditions: Mesomycoplasma hyopneumoniae, UCD1, 144 h
M. suipneumoniae MS 16 = assay: MIC against mycoplasma in vitro; format: cell-based; conditions: Mesomycoplasma hyopneumoniae, MS16, 144 h
E. coli E1 = assay: MIC against veterinary bacteria in vitro; conditions: Escherichia coli, E1, 18 h
Method: as §1

M. pneumoniae ATCC 15492 = assay: MIC against mycoplasma in vitro; format: cell-based; conditions: Mycoplasmoides pneumoniae, ATCC15492, 144 h; M. pneumoniae ATCC 15492; 6 days, 37° C.; read-out: MIC
M. suipneumoniae HK(2) = assay: MIC against mycoplasma in vitro; format: cell-based; conditions: Mesomycoplasma hyopneumoniae, 144 h; M. suipneumoniae HK(2); 6 days, 37° C.; read-out: MIC
B. subtilis ATCC 6633 = assay: MIC against veterinary bacteria in vitro; conditions: Bacillus subtilis, ATCC6633, 18 h
Method: as §1

M. gallisepticum S6 = assay: MIC against mycoplasma in vitro; format: cell-based; conditions: Mycoplasmoides gallisepticum, S6, 144 h
[3] = tested on: M. suipneumoniae NCTC 10110; assay: MIC against mycoplasma in vitro; format: cell-based; conditions: Mesomycoplasma hyopneumoniae, NCTC10110, 144 h; M. suipneumoniae NCTC 10110; 6 days, 37° C.; read-out: MIC
Bord. bronchiseptica B09 = assay: MIC against veterinary bacteria in vitro; conditions: Bordetella bronchiseptica, B09, 18 h
Method: as §1

M. suipneumoniae TAM 6N = assay: MIC against mycoplasma in vitro; format: cell-based; conditions: Mesomycoplasma hyopneumoniae, TAM6N, 144 h; M. suipneumoniae TAM 6N; 6 days, 37° C.; read-out: MIC
[4] = tested on: Strep. suis (group D) SPS11; assay: MIC against veterinary bacteria in vitro; conditions: Streptococcus suis, 18 h
Method: as §1

[5] = tested on: M. suipneumoniae J2206/183^b; assay: MIC against mycoplasma in vitro; format: cell-based; conditions: Mesomycoplasma hyopneumoniae, 144 h; M. suipneumoniae J2206/183^b; 6 days, 37° C.; read-out: MIC
[6] = tested on: Erysipelothrix rhusiopathiae NCTC 8163; assay: MIC against veterinary bacteria in vitro; conditions: Erysipelothrix rhusiopathiae, NCTC8163, 18 h
Method: as §1

M. suipneumoniae LABER = assay: MIC against mycoplasma in vitro; format: cell-based; conditions: Mesomycoplasma hyopneumoniae, 144 h
Past. multocida PA2 = assay: MIC against veterinary bacteria in vitro; conditions: Pasteurella multocida, PA2, 18 h
Method: as §1

[7] = tested on: Staph. aureus 152 (pen. sens); assay: MIC against veterinary bacteria in vitro; conditions: Staphylococcus aureus, 18 h
Method: as §1

Bord. bronchiseptica B08 = assay: MIC against veterinary bacteria in vitro; conditions: Bordetella bronchiseptica, B08, 18 h
Method: as §1

M. dispar NCTC 10125 = assay: MIC against mycoplasma in vitro; format: cell-based; conditions: 144 h
M. suipneumoniae Str. 11 = assay: MIC against mycoplasma in vitro; format: cell-based; conditions: Mesomycoplasma hyopneumoniae, STR.11, 144 h
[8] = tested on: Corynebacterium pyogenes CY1; assay: MIC against veterinary bacteria in vitro; conditions: CY1, 18 h
Method: as §1

[9] = tested on: M. hyosynoviae ATCC 25591; assay: MIC against mycoplasma in vitro; format: cell-based; conditions: 144 h
Past. multocida PA1 = assay: MIC against veterinary bacteria in vitro; conditions: Pasteurella multocida, PA1, 18 h
Method: as §1

[10] = tested on: Staph. aureus B4 (pen. resistant); assay: MIC against veterinary bacteria in vitro; conditions: Staphylococcus aureus, 18 h
Method: as §1

Strep. uberis SPU1 = assay: MIC against veterinary bacteria in vitro; conditions: Streptococcus uberis, SPU1, 18 h
Method: as §1

SMILES: C/C(=C\c1ncc(-c2ccc(Br)s2)o1)C[C@@H]1OC[C@H](C[C@@H]2O[C@H]2[C@@H](C)[C@H](C)O)[C@@H](O)[C@H]1O [Example 28, 5-[2-(5-Bromo)-thienyl]-2-(1-normon-2-yl)oxazole A]
- MIC [1]: 0.25 µg/mL (≈ 0.473 µM)
- MIC (Strep. agalactiae SPA1): 1.25 µg/mL (≈ 2.37 µM)
- MIC (M. bovis NCTC 10131): 0.05 µg/mL (≈ 0.0946 µM)
- MIC (S. typhimurium S18): > 80 µg/mL
- MIC (Staph. aureus Oxford): 0.625 µg/mL (≈ 1.18 µM)
- MIC (E. coli NCTC 10418): > 80 µg/mL
- MIC (M. hyorhinis ATCC 25021): 0.5 µg/mL (≈ 0.946 µM)
- MIC (Past. haemolytica PA5): 80 µg/mL (≈ 151 µM)
- MIC (M. suipneumoniae JF 435): 1 µg/mL (≈ 1.89 µM)
- MIC (M. hyorhinis ATCC 23234): 0.5 µg/mL (≈ 0.946 µM)
- MIC [2]: 0.1 µg/mL (≈ 0.189 µM)
- MIC (Strep. dysgalactiae SPD1): 0.312 µg/mL (≈ 0.59 µM)
- MIC (S. dublin S7): > 80 µg/mL
- MIC (M. suipneumoniae UCD 1): 0.25 µg/mL (≈ 0.473 µM)
- MIC (M. suipneumoniae MS 16): 0.25 µg/mL (≈ 0.473 µM)
- MIC (E. coli E1): > 80 µg/mL
- MIC (M. pneumoniae ATCC 15492): 5 µg/mL (≈ 9.46 µM)
- MIC (M. suipneumoniae HK(2)): 0.5 µg/mL (≈ 0.946 µM)
- MIC (B. subtilis ATCC 6633): 0.07 µg/mL (≈ 0.132 µM)
- MIC (M. gallisepticum S6): 2.5 µg/mL (≈ 4.73 µM)
- MIC [3]: 0.5 µg/mL (≈ 0.946 µM)
- MIC (Bord. bronchiseptica B09): 20 µg/mL (≈ 37.8 µM)
- MIC (M. suipneumoniae TAM 6N): 0.5 µg/mL (≈ 0.946 µM)
- MIC [4]: 10 µg/mL (≈ 18.9 µM)
- MIC [5]: 0.5 µg/mL (≈ 0.946 µM)
- MIC [6]: 40 µg/mL (≈ 75.7 µM)
- MIC (M. suipneumoniae LABER): 0.25 µg/mL (≈ 0.473 µM)
- MIC (Past. multocida PA2): 2.5 µg/mL (≈ 4.73 µM)
- MIC [7]: 0.312 µg/mL (≈ 0.59 µM)
- MIC (Bord. bronchiseptica B08): 80 µg/mL (≈ 151 µM)
- MIC (M. dispar NCTC 10125): 0.1 µg/mL (≈ 0.189 µM)
- MIC (M. suipneumoniae Str. 11): 0.25 µg/mL (≈ 0.473 µM)
- MIC [8]: > 80 µg/mL
- MIC [9]: 1 µg/mL (≈ 1.89 µM)
- MIC (Past. multocida PA1): 20 µg/mL (≈ 37.8 µM)
- MIC [10]: 0.156 µg/mL (≈ 0.295 µM)
- MIC (Strep. uberis SPU1): < 0.039 µg/mL
